Our source for the IC50 values is US12168012B2, “NLRP3 inflammasome inhibitors” (Novartis AG, priority 2018, dated 2024).

Bounds are passed on as bounds.

Holding throughout (type): cell-based
One experiment concerns THP-1 cells. In words: Readout of pyroptosis (PrestoBlue cell viability reagent) in the IL-1β secretion assay. As to conditions: Homo sapiens; PMA-differentiated THP-1 cells, nigericin; values marked * in the IL-1β column. The protocol: Monocytic THP-1 cells (ATCC: TIB-202) were maintained according to providers' instructions in RPMI media (RPMI/Hepes+10% fetal bovine serum+Sodium Pyruvate+0.05 mM Beta-mercaptoethanol (1000× stock)+Pen-Strep). Cells were differentiated in bulk with 0.5 μM phorbol 12-myristate 13-acetate (PMA; Sigma #P8139) for 3 hours, media was exchanged, and cells were plated at 50,000 cells per well in a 384-well flat-bottom cell culture plates (Greiner, #781986), and allowed to differentiate overnight. Compound in a 1:3.16 serial dilution series in DMSO was added 1:100 to the cells and incubated for 1 hour. The NLRP3 inflammasome was activated with the addition of 15 μM (final concentration) Nigericin (Enzo Life Sciences, #BML-CA421-0005), and cells were incubated for 3 hours. 10 μL supernatant was removed, and IL-1p levels were monitored using an HTRF assay (CisBio, #62IL1PEC) according to manufacturers' instructions. Viability and pyroptosis was monitored with the addition of PrestoBlue cell viability reagent (Life Technologies, #A13261) directly to the cell culture plate.

Experiment [1] concerns NF-kB-dependent TNF-α secretion. In words: TNF-α secretion assay (counterscreen). The following applies: Homo sapiens; THP-1 cells, Pam3CSK4-stimulated, 3 hours, HTRF. Put shortly:
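Undifferentiated THP-1 cells, rested overnight, given compound then stimulated with 1 μg/mL LPS or 100 ng/mL Pam3CSK4 for 3 hours. Supernatant TNF-α measured by HTRF; IC50 from four-parameter logistic fit of % inhibition versus concentration, with viability monitored.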

Another experiment concerns NLRP3 inflammasome. The experiment in a line: IL-1β secretion assay. The following applies: Homo sapiens, THP-1, 3 h, PMA-differentiated THP-1 cells, 15 μM nigericin, HTRF. Put shortly: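 PMA-differentiated THP-1 cells stimulated with nigericin to trigger NLRP3-dependent IL-1β secretion, measured by HTRF after 3 h. Viability/pyroptosis monitored with PrestoBlue. IC50 from logistic fit of % inhibition vs concentration with Hill coefficient.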

In the experiment on THP-1 cells, `CC(C)c1nn(CC(=O)Nc2nncs2)c(=O)c2cc3sc(Cl)cc3n12` [Ex 117, 2-(2-Chloro-5-isopropyl-8-oxothieno[2′,3′:4,5]pyrrolo[1,2-d][1,2,4]triazin-7(8H)-yl)-N-(1,3,4-thiadiazol-2-yl)acetamide] showed an IC50 of 6000 nM. Take `CC(C)(O)c1nn(CC(=O)Nc2cccc(NS(C)(=O)=O)c2)c(=O)c2cc3sc(Cl)cc3n12` [Ex 116, 2-(2-Chloro-5-(2-hydroxypropan-2-yl)-8-oxothieno[2′,3′:4,5]pyrrolo[1,2-d][1,2,4]triazin-7(8H)-yl)-N-(3-(methylsulfonamido)phenyl)acetamide]: the midpoint of inhibition in the experiment with THP-1 cells, the IC50, lay at 400 nM. `CC(C)c1nn(CC(=O)N[C@H]2CCC[C@@H](NC(=O)OC(C)(C)C)C2)c(=O)c2cc3sc(Cl)cc3n12` [Ex 56, tert-Butyl ((1R,3S)-3-(2-(2-chloro-5-isopropyl-8-oxothieno[2′,3′:4,5]pyrrolo[1,2-d][1,2,4]triazin-7(8H)-yl)acetamido)cyclohexyl)carbamate]: the figures for the IC50 (in experiment [1]; with THP-1 cells) were greater than 100 µM and greater than 330 nM, respectively. On to `O=C(Cn1nc(C2CC2)n2c(cc3sc(F)cc32)c1=O)N[C@@H]1CCCNC1` [Ex 34, (R)-2-(5-Cyclopropyl-2-fluoro-8-oxothieno[2′,3′:4,5]pyrrolo[1,2-d][1,2,4]triazin-7(8H)-yl)-N-(piperidin-3-yl)acetamide], for which the IC50 in the experiment on NLRP3 inflammasome is 80.3 nM; in experiment [1], greater than 100 µM. The corresponding values for `CC(C)c1nn(CC(=O)N[C@@H]2CCCN(CC3CC3)C2)c(=O)c2cc3sc(Cl)cc3n12` [Ex 134, (R)-2-(2-Chloro-5-isopropyl-8-oxothieno[2′,3′:4,5]pyrrolo[1,2-d][1,2,4]triazin-7(8H)-yl)-N-(1-(cyclopropylmethyl)piperidin-3-yl)acetamide] are 0.7 nM and greater than 100 µM.

In the case of `CC(C)(O)c1nn(CC(=O)NC2CC3(COC3)C2)c(=O)c2cc3sc(Cl)cc3n12` [Ex 26, 2-(2-Chloro-5-(2-hydroxypropan-2-yl)-8-oxothieno[2′,3′:4,5]pyrrolo[1,2-d][1,2,4]triazin-7(8H)-yl)-N-(2-oxaspiro[3.3]heptan-6-yl)acetamide], the IC50 in the experiment on NLRP3 inflammasome is 46.4 nM; in experiment [1], greater than 100 µM. For `CN1CCC[C@@H](NC(=O)Cn2nc(C3CC3)n3c(cc4sc(F)cc43)c2=O)C1` [Ex 35, (R)-2-(5-Cyclopropyl-2-fluoro-8-oxothieno[2′,3′:4,5]pyrrolo[1,2-d][1,2,4]triazin-7(8H)-yl)-N-(1-methylpiperidin-3-yl)acetamide], the IC50 in the experiment on NLRP3 inflammasome amounted to 48.1 nM; in experiment [1] it was 40 µM. The corresponding values for `CC(C)c1nn(CC(=O)Nc2ccncn2)c(=O)c2cc3sc(F)cc3n12` [Ex 6, 2-(2-Fluoro-5-isopropyl-8-oxothieno[2′,3′:4,5]pyrrolo[1,2-d][1,2,4]triazin-7(8H)-yl)-N-(pyrimidin-4-yl)acetamide] are 6.5 nM and greater than 100 µM. The corresponding values for `Cc1cc2c(cc3c(=O)n(CC(=O)NC4CC4)nc(C(C)C)n32)s1` [Ex 41, N-Cyclopropyl-2-(5-isopropyl-2-methyl-8-oxothieno[2′,3′:4,5]pyrrolo[1,2-d][1,2,4]triazin-7(8H)-yl)acetamide] are 1170 nM and greater than 100 µM.

Consider `CC(C)c1nn(CC(=O)N[C@H]2CCC[C@@H](C(=O)O)C2)c(=O)c2cc3sc(Cl)cc3n12` [Ex 55, (1R,3S)-3-(2-(2-Chloro-5-isopropyl-8-oxothieno[2′,3′:4,5]pyrrolo[1,2-d][1,2,4]triazin-7(8H)-yl)acetamido)cyclohexane-1-carboxylic acid], for which the IC50 was 843 nM in the experiment on NLRP3 inflammasome and greater than 100 µM in experiment [1]. The corresponding values for `CC(C)c1nn(CC(=O)NC[C@@H](C)O)c(=O)c2cc3sc(Cl)cc3n12` [Ex 70, (R)-2-(2-Chloro-5-isopropyl-8-oxothieno[2′,3′:4,5]pyrrolo[1,2-d][1,2,4]triazin-7(8H)-yl)-N-(2-hydroxypropyl)acetamide] are 34.9 nM and greater than 100 µM. With `CC(C)c1nn(CC(=O)NCCO)c(=O)c2cc3sc(Cl)cc3n12` [Ex 68, 2-(2-Chloro-5-isopropyl-8-oxothieno[2′,3′:4,5]pyrrolo[1,2-d][1,2,4]triazin-7(8H)-yl)-N-(2-hydroxyethyl)acetamide], the figures for the half-inhibitory concentration (IC50) (in the experiment with NLRP3 inflammasome; in experiment [1]) were 45.2 nM and greater than 100 µM, respectively. The corresponding values for `CC(C)c1nn(CC(=O)N[C@@H]2CCCNC2)c(=O)c2cc3scnc3n12` [Ex 88, (R)-2-(5-Isopropyl-8-oxothiazolo[5′,4′:4,5]pyrrolo[1,2-d][1,2,4]triazin-7(8H)-yl)-N-(piperidin-3-yl)acetamide] are 27.5 nM and greater than 100 µM. The corresponding values for `CC(C)c1nn(CC(=O)N[C@@H]2CCCN(C)C2)c(=O)c2cc3sc(F)cc3n12` [Ex 32, (R)-2-(2-Fluoro-5-isopropyl-8-oxothieno[2′,3′:4,5]pyrrolo[1,2-d][1,2,4]triazin-7(8H)-yl)-N-(1-methylpiperidin-3-yl)acetamide] are 7.6 nM and greater than 100 µM. `CC(C)c1nn(CC(=O)N[C@@H]2CCCN(CC3(O)CCC3)C2)c(=O)c2cc3sc(Cl)cc3n12` [Ex 131, (R)-2-(2-Chloro-5-isopropyl-8-oxothieno[2′,3′:4,5]pyrrolo[1,2-d][1,2,4]triazin-7(8H)-yl)-N-(1-((1-hydroxycyclobutyl)methyl)piperidin-3-yl)acetamide]: the half-inhibitory concentration (IC50) in the experiment with NLRP3 inflammasome was 17.9 nM; in experiment [1], greater than 33 µM.
